What was measured:
[1] = target: T1, human thrombopoietin receptor (c-mpl) (Homo sapiens, UniProt P40238); assay: Stimulation of proliferation of thrombopoietin-dependent cell line UT7/EPO-mpl (WST-8); type: cell-based; conditions: for EC50: human leukemic cell line UT-7/EPO-mpl, 4 days incubation, relative to 10 ng/mL TPO, read-out: EC50 (concentration that yields a growth rate corresponding to 50% of the growth observed in the presence of 10 ng/mL TPO) (converted)
T1 construct: expressed in transfected cells
T1 sequence (P40238 26-635): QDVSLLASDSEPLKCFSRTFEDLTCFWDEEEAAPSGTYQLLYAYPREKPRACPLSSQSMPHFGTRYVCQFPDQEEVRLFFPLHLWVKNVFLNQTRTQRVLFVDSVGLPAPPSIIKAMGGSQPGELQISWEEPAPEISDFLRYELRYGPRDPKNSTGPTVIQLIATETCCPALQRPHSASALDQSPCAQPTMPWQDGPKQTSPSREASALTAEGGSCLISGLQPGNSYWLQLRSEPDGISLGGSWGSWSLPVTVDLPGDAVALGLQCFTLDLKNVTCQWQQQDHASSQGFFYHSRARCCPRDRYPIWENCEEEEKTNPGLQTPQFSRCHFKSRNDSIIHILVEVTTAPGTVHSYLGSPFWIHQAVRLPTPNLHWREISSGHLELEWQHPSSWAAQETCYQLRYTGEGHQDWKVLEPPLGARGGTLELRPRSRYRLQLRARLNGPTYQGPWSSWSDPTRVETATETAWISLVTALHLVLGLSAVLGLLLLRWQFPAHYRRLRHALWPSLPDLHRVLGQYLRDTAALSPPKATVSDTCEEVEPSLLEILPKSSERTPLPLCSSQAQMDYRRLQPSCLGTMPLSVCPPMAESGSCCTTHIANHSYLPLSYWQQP
Procedure: The response of thrombopoietin receptor to the compound of Synthetic Example 2 of the present invention was assayed using a human leukemic cell line, UT7/EPO-mpl.
(§1) UT7/EPO-mpl is a stable transformed cell line obtained by introducing into human leukemic cell line UT7/EPO a vector that induces expression of human thrombopoietin receptor (c-mpl) under control of cytomegalovirus immediate-early promoter by the method of Takatoku et al. (J. Biol. Chem., 272:7259-7263 (1997)). […] These two cell lines were subcultured in IMDM (GIBCO) containing 10% fetal bovine serum (Thermo Electron or BioWest) using a CO2 incubator (5% CO2, 37° C.).
The subcultured cells described above were washed twice with PBS and suspended in IMDM containing 10% fetal bovine serum at a cell density of 6×10^4 cells/ml. The cell suspension was transferred to a 96-well tissue culture plate (CORNING) in 100-μl aliquots. Then either thrombopoietin (Pepro Tech EC, or the compound of Synthetic Example 2 dissolved in dimethyl sulfoxide was diluted 83-fold with IMDM containing 10% fetal bovine serum and added to the aforementioned cell suspension in 20-μl aliquots. The cell suspension was incubated in a CO2 incubator (5% CO2, 37° C.) for 4 days. Cell proliferation was assayed using WST-8 reagent (Kishida Chemical Co., Ltd.) according to instructions by the manufacturer. A 10-μl aliquot of 5 mM WST-8 reagent solution was added to each well of the tissue culture plate, and the plate was incubated at 37° C. for 4 hours. The formazan pigment generated was detected by measuring the absorbance at 450 nm with a 96-well microplate reader (Nihon Molecular Devices, Spectramax 190).
The compounds of the following Synthetic Examples were tested according to the method of Assay Example 1 to determine the concentration of each compound that yields a growth rate corresponding to 50% of the growth of human leukemic cell line UT-7/EPO-mpl observed in the presence of 10 ng/mL TPO (EC50).

UT7/EPO cells [2] = assay: Proliferation of mother cell line UT7/EPO expressing no thrombopoietin receptor (WST-8); type: cell-based, human; conditions: FIG. 2
Procedure: as §1
The subcultured cells described above were washed twice with PBS and suspended in IMDM containing 10% fetal bovine serum at a cell density of 6×10^4 cells/ml. The cell suspension was transferred to a 96-well tissue culture plate (CORNING) in 100-μl aliquots. […] The formazan pigment generated was detected by measuring the absorbance at 450 nm with a 96-well microplate reader (Nihon Molecular Devices, Spectramax 190).

UT7/EPO cells [3] = conditions: property of the cell line as described; cited from earlier work
[4] = target: T1, human thrombopoietin receptor (c-mpl); conditions: property of the cell line as described; cited from earlier work

Row | Compound | EC50 [1] [nM] | other results
1 | C/C(=N\NC(=O)c1ccc(C(=O)NCC2CCCO2)s1)c1csc(-c2ccc(Cl)c(Cl)c2)c1O (stereo not shown) [Synthetic Example 2, 5-{1-[5-(3,4-Dichlorophenyl)-4-hydroxythiophen-3-yl]ethylidenehydrazinocarbonyl}thiophene-2-carboxylic acid(tetrahydrofuran-2-ylmethyl)amide] | – | proliferation of thrombopoietin-responsive UT7/EPO-mpl cells ([1]; FIG. 1, UT7/EPO-mpl cells, 4 days, WST-8 absorbance at 450 nm): stimulated; acts on the thrombopoietin receptor selectively as an activator ([1]; conclusion from UT7/EPO-mpl versus UT7/EPO): selectively; effect on proliferation of UT7/EPO, the mother cell line (UT7/EPO cells [2]): no effect
2 | CC(=O)NC1CCN(C(=O)c2ccc(C(=O)N/N=C(\C)c3csc(-c4ccc(Cl)c(Cl)c4)c3O)s2)C1 (stereo not shown) [compound 5] | 0.566 | –
3 | C/C(=N\NC(=O)c1ccc(C(=O)NCCCN2CCOCC2)s1)c1nn(C)c(-c2ccc(C(F)(F)F)cc2)c1O [compound 49] | 2.77 | –
4 | C/C(=N\NC(=O)c1ccc(C(=O)NNc2ccccn2)s1)c1csc(-c2ccc(Cl)c(Cl)c2)c1O [compound 58] | 1.56 | –
5 | COC1CN(C(=O)c2ccc(C(=O)N/N=C(\C)c3csc(-c4ccc(Br)cc4)c3O)s2)CC1OC (stereo not shown) [compound 84] | 5.01 | –
6 | TPO: Thrombopoietin is a cytokine consisting of 332 amino acids that increases platelet production | – | response of mother cell line UT7/EPO (UT7/EPO cells [3]): no response; proliferation of UT7/EPO-mpl cell line [4]: stimulated

Second part, led by results:

Row | EC50 [1] [nM] | Compound | other results
7 | 2.27 | C/C(=N\NC(=O)c1ccc(C(=O)NN(C)C)s1)c1csc(-c2ccc(C(C)(C)C)cc2)c1O [compound 24] | –
8 | 6.5 | C/C(=N\NC(=O)c1ccc(C(=O)NCCC(=O)O)s1)c1csc(-c2ccc(Cl)cc2)c1O [compound 45] | –
9 | 4.12 | C/C(=N\NC(=O)c1ccc(C(=O)NCCC(=O)O)s1)c1csc(-c2ccc(C)c(C)c2)c1O [compound 65] | –
10 | 0.652 | C/C(=N\NC(=O)c1ccc(C(=O)N2CC(O)C(O)C2)s1)c1csc(-c2cccc(Cl)c2)c1O (stereo not shown) [compound 90] | –

— patent US8134013B2, “Amide compound and thrombopoietin receptor activator” (Nissan Chemical Industries, Ltd., priority 2004, dated 2012)
